These results are taken from paper PMC12044326 (Clinical Pharmacology in Drug Development, 2025).

For one data set, the system named is CYP3A4. More on the design: method as in PMID 15242978, PMID 9929500. Particulars: cited from earlier work.
A short description of the next data set: in vitro. To be noted: human, Caco-2.

Procedure for in vitro: Caco-2 cells were obtained from American Type Culture Collection. Prior to the experiments,
the cells were seeded on 55 cm2 bottom culture dishes (Corning). The cells were cultured at
37°C in a humidified CO2 (5%) incubator and routinely passaged about once a week. Caco-2
cultured in the medium at 37°C in a humidified CO2 (5%) incubator for 23 days to prepare cell
The medium was changed 4 days after seeding and then changed every 2 or 3 days
thereafter. Before the experiment, the integrity of the Caco-2 cell monolayer was checked by
measuring the trans-epithelial electrical resistance (TEER) value. The TEER values of cell
In the transport experiments, the medium of top side of the cells (apical side) and basal
side of the cells (basal side) were replaced with the DMSO-HBSS solution, the inhibitor-HBSS
control), or the test solutions (digoxin and mannitol as substrates). The volumes of the replaced
solutions were 300 μL for the apical side and 1 mL for the basal side. The DMSO-HBSS […]
of the solution in each basal side (receiver side) were collected and measured for the
radioactivity using an LSC. […]
collected and measured for the radioactivity using an LSC. […]
side (receiver side) were collected and measured for the radioactivity using an LSC. […]
in each apical side and each basal side (donor side) were collected and measured for the
radioactivity using an LSC.

In the case of `CCC(C)n1ncn(-c2ccc(N3CCN(c4ccc(OCC5COC(Cn6cncn6)(c6ccc(Cl)cc6Cl)O5)cc4)CC3)cc2)c1=O` (centres unmarked) [itraconazole], the “CYP3A4 inhibitor potency over ketoconazole” value in the data set on CYP3A4 is approximately 10 fold.

For orientation: Papp means a coefficient for how fast a substance crosses the barrier. In the case of `CC(C)NCC(O)COc1cccc2ccccc12` (centres unmarked) [propranolol, reference compound], the Papp in “in vitro” is 27.8 ×10⁻⁶ cm/s.
